Source: patent US20050043262A1, “Novel specific inhibitor of the cyclin kinase inhibitor p21Waf1/Cip1 and methods of using the inhibitor” (priority 2000, published 2005)

Experiments:
[1] = system: A10 VSM cells; assay: Cell proliferation by counting adherent cells; type: cell-based, rat; details: after 18 hours of PDGF incubation
Description: Cell culture, DNA synthesis, and proliferation assays: Cultures of both A10 and A7r5 rat aortic VSM cells were obtained from American Type Culture Collection (Rockville Md.). Bovine aortic smooth muscle cells were supplied by Martha O'Donnell (O'Donnell and Owen, 1986 Proc Natl. Acad. Sci.US.A., 83, p. 6132-6136). All of the cell lines were maintained as described (Weiss et al., 1998 Am. J. Physiol., 274, p. C1521-C1529) and were used between passages 15 and 25. The cells were growth-arrested by placing them in serum-free quiescence medium, exposed to growth factors as indicated, and [^3H]thymidine incorporation assessed as previously described (Weiss and Nuccitelli, 1992a J. Biol. Chem., 267, p. 5608-5613). Cell proliferation was assessed by counting of adherent cells on 4 representative fields under 100× magnification in each of 3 wells per experimental condition.
Antisense techniques were employed to examine the dependence of G1-phase progression on p21^Waf1/Cip1 in the VSM cell lines (Crooke, 1993 Antisense research and applications. Boca Raton, CRC.). […] DNA synthesis was assessed by [^3H]-thymidine incorporation and is expressed as mean ± s.e.m. of three wells per data point. […] After 18 hours of PDGF incubation, the cells were counted by examining representative fields at 100× magnification. The average number of cells in 4 random fields in each well was determined.

[2] = system: T47D cells; assay: Nuclear morphology (Hoechst 33258) in T47D cells; type: cell-based, human; details: serum stimulated 24 hours after lipofection
Experimental: Evaluation of Nuclear Morphology: Cells were seeded in 6-well culture dishes and treated with ODNs as described. The cells were then immersed in methanol for at least 10 min. Cells were stained in 1 μg/ml Hoechst 33258 in water with 1% nonfat dry milk. After staining for 8-10 min, the cells were rinsed in water and dried completely. Nuclear morphology was visually evaluated by fluorescence microscopy.
Apoptosis is the end result of an elaborate cascade of molecular events that ultimately result in programmed cell death; thus, a variety of tests are generally used to determine whether apoptosis is occurring. The methods to study apoptosis were employed: (a) assessment of nuclear morphology; (b) PARP cleavage; and (c) caspase-3 cleavage. Serum-starved cells were transfected with antisense p21 ODN or the control ODN, fixed, stained with Hoechst 33258, and examined under UV light. MCF7 and T47D cells were grown to confluence, serum starved for 24 hours, and lipofected with antisense p21 or control ODN. The cells were subsequently serum stimulated for another 24 hours, fixed, stained with Hoechst 33258, and examined under UV light at X400.

Substance | cell number / cell proliferation [1] | cell number / cell proliferation ([1]; listed as antisense p21^Waf1/Cip1 oligodeoxynucleotide) | nuclear morphology [2]
5′-GACATCACCAGGATCGGACAT-3′ | parallel the alterations in DNA synthesis | inhibited | 
5′-ATC-CCC-AGC-CGG-TTC-TGA-CAT-3′ (antisense ATCCCCAGCCGGTTCTGACAT; listed as DNA, chemistry not fully specified) [antisense p21 ODN] |  |  | nuclear morphological changes consistent with apoptosis
